# According to patent US8618163B2, “Derivatives of cycloalkyl- and cycloalkenyl-1,2-dicarboxylic acid compounds having formyl peptide receptor like-1 (FPRL-1) agonist or antagonist activity” (Allergan, Inc., priority 2010, dated 2013):
# Like-named read-outs stand apart in the source and are kept apart here.
# Tests used:
# FPR1 = target: T1, FPR1 (Homo sapiens, UniProt P21462); assay: compound-induced calcium activity on FLIPR Tetra in HEK-Gqi5 cells stable expressing FPR1; assay type: cell-based; settings: class symbol NA, read-out: FPR1 EC50 (NA = Not Active)
# T1 construct: expressed in transfected cells; host or cells: HEK-Gqi5 (HEK cells with chimeric G protein Gqi5)
# T1 sequence (P21462 1-350): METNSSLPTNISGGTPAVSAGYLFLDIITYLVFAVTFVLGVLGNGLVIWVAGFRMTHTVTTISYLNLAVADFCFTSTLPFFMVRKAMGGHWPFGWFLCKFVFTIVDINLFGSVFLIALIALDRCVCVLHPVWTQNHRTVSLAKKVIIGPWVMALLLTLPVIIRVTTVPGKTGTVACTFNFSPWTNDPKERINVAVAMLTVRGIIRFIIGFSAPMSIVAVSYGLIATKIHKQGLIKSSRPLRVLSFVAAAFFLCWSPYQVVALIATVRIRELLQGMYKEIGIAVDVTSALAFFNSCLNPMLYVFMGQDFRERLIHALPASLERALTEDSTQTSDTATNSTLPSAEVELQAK
# Procedure, shortened: (§1)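 FPRL1 tested in CHO-Gal6 cells and FPR1 in HEK-Gqi5 cells, both stably expressing receptor and plated the day before. Compound-induced calcium response measured on FLIPR Tetra at 0.61 to 10,000 nM. EC50 (nM) and efficacy reported.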
# FPRL1 = target: T2, FPRL1 (Homo sapiens, UniProt P25090); assay: compound-induced calcium activity on FLIPR Tetra in CHO-Gal6 cells stably expressing FPRL1; assay type: cell-based; settings: for FPRL1 (rel. eff.): relative efficacy
# T2 construct: expressed in transfected cells; host or cells: CHO-Gal6 (CHO cells with G alpha 16)
# T2 sequence (P25090 1-351): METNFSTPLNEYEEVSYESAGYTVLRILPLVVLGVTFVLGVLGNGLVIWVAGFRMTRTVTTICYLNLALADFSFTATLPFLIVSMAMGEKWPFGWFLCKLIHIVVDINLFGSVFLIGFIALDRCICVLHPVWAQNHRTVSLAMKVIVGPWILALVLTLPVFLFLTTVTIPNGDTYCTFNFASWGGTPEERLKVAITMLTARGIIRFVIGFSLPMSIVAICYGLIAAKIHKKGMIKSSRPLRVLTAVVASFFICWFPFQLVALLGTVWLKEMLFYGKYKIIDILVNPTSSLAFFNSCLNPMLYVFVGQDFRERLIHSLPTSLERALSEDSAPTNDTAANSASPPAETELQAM
# Procedure, shortened: as §1
# [1] = calcium, FLIPR Tetra, tested 0.61 to 10,000 nM, read-out: FPRL1 EC50
Compound,EC50 (FPR1) [nM],"FPRL1 (rel. eff.) (FPRL1; calcium, FLIPR Tetra)",EC50 (FPRL1; [1]) [nM],"EC50 (FPRL1; class symbol NA, read-out: FPRL1 EC50 (NA = Not Active)) [nM]"
"CC1(C)C2CCC1C(C(=O)Nc1ccc(I)cc1)C2C(N)=O (racemic) [Compound 61, (+/−)-(1S,2R,3S,4R)—N^2-(4-Iodophenyl)-7,7-dimethylbicyclo[2.2.1]heptanes-2,3-dicarboxamide]",> 10000,0.82,–,–
"NC(=O)[C@@H]1[C@H](C(=O)Nc2ccc(I)cc2)[C@@H]2CC[C@H]1C21CC1 (racemic) [Compound 62, (+/−)-(1S,2R,3S,4R)—N^2-(4-Iodophenyl)-[bicyclo[2.2.1]heptane-7,1′-cyclopropane]-2,3-dicarboxamide]",> 10000,0.89,5,–
"CSc1ccc(NC(=O)C2C(C(N)=O)C3C=CC2C32CC2)cc1 (racemic) [Compound 63, (+/−)-(1R,4S,5R,6S)—N^5-(4-(Methylthio)phenyl)spiro[bicyclo[2.2.1]hept[2]ene-7,1′-cyclopropane]-5,6-dicarboxamide]",> 10000,0.9,96.6,–
"CSc1ccc(NC(=O)[C@H]2[C@@H](C(N)=O)[C@H]3CC[C@@H]2C3(C)C)cc1 (racemic) [Compound 64, (+/−)-(1S,2R,3S,4R)-7,7-Dimethyl-N^2-(4-(methylthio)phenyl)bicyclo[2.2.1]heptane-2,3-dicarboxamide]",> 10000,0.9,17.2,–
"CCc1ccc(NC(=O)[C@H]2[C@@H](C(N)=O)[C@H]3CC[C@@H]2C3(C)C)cc1 (racemic) [Compound 65, (+/−)-(1S,2R,3S,4R)—N^2-(4-Ethylphenyl)-7,7-dimethyl-bicyclo[2.2.1]heptane-2,3-dicarboxamide]",> 10000,0.95,35,–
"CCc1ccc(NC(=O)C2C(C(N)=O)C3C=CC2C32CC2)cc1 (racemic) [Compound 66, (+/−)-(1R,4S,5R,6S)—N^5-(4-Ethylphenyl)spiro[bicyclo[2.2.1]hept[2]ene-7,1′-cyclopropane]-5,6-dicarboxamide]",> 10000,0.79,50.8,–
"CSc1ccc(NC(=O)[C@H]2[C@@H](C(N)=O)[C@H]3CC[C@@H]2C32CC2)cc1 (racemic) [Compound 67, (+/−)-(1S,2R,3S,4R)—N^2-(4-(Methylthio)phenyl)-spiro[bicyclo[2.2.1]heptane-7,1′-cyclopropane]-2,3-dicarboxamide]",> 10000,0.91,15.7,–
"CCc1ccc(NC(=O)[C@H]2[C@@H](C(N)=O)[C@H]3CC[C@@H]2C32CC2)cc1 (racemic) [Compound 68, (+/−)-(1S,2R,3S,4R)—N^2-(4-Ethyl-phenyl)-spiro[bicyclo[2.2.1]heptane-7,1′-cyclopropane]-2,3-dicarboxamide]",> 10000,1.0,38.1,–
"NC(=O)C1C(C(=O)Nc2ccc(I)cc2)C2C=CC1C21CC1 (racemic) [Compound 69, (+/−)-(1R,4S,5R,6S)—N^5-(4-Iodophenyl)spiro[bicyclo[2.2.1]hept[2]ene-7,1′-cyclopropane]-5,6-dicarboxamide]",> 10000,0.87,7.7,–
"C[S+]([O-])c1ccc(NC(=O)C2C(C(=O)O)C3CCC2C32CC2)cc1 (racemic) [Compound 70, (+/−)-(1R,2S,3R,4S)-3-((4-Methylsulfinyl)phenyl)carbamoyl)spiro[bicyclo[2.2.1]-heptane-7,1′-cyclopropane]-2-carboxylic Acid]",> 10000,0.95,475,–
"O=C(O)C1=C(C(=O)Nc2ccc(Br)cc2)C2C=CC1C21CC1 (racemic) [Compound 72, (+/−)-(1R,4S)-2-((4-Bromophenyl)carbamoyl)spiro[bicyclo[2.2.1]-hepta[2,5]diene-7,1′-cyclopropane]-3-carboxylic Acid]",> 10000,0.92,617,–
"Cc1cc(Br)cc(C)c1NC(=O)[C@@H]1[C@H](C(=O)O)[C@@H]2CC[C@H]1C21CC1 (racemic) [Compound 73, (+/−)-(1R,2S,3R,4S)-2-((4-Bromo-2,6-dimethylphenyl)carbamoyl)spiro[bicyclo[2.2.1]-heptane-7,1′-cyclopropane]-3-carboxylic Acid]",> 10000,0.67,2120,–
"NC(=O)c1ccc(NC(=O)C2C(C(=O)O)C3CCC2C32CC2)cc1 (racemic) [Compound 74, (+/−)-(1S,2R,3S,4R)-2-((4-Carbomoylphenyl)carbamoyl)spiro[bicyclo[2.2.1]-heptan-7,1′-cyclopropane]-3-carboxylic Acid]",> 10000,0.67,2770,–
"CC(=O)Nc1ccc(NC(=O)[C@H]2[C@@H](C(=O)O)[C@H]3CC[C@@H]2C32CC2)cc1 (racemic) [Compound 75, (+/−)-(1S,2R,3S,4R)-2-((4-Acetamidophenyl)carbamoyl)spiro[bicyclo[2.2.1]-heptan-7,1′-cyclopropane]-3-carboxylic Acid]",> 10000,–,–,> 10000
"CNC(=O)[C@@H]1[C@H](C(=O)Nc2ccc(Br)cc2)[C@@H]2CC[C@H]1C21CC1 (racemic) [Compound 77, (+/−)-(1S,2R,3S,4R)—N^2-(4-Bromophenyl)-N^3-methylspiro[bicyclo[2.2.1]heptane-7,1′-cyclopropane]-2,3-dicarboxamide]",> 10000,0.95,9.7,–
"CCNC(=O)[C@@H]1[C@H](C(=O)Nc2ccc(Br)cc2)[C@@H]2CC[C@H]1C21CC1 (racemic) [Compound 78, (+/−)-(1S,2R,3S,4R)—N^2-(4-Bromophenyl)-N^3-ethylspiro[bicyclo[2.2.1]heptane-7,1′-cyclopropane]-2,3-dicarboxamide]",> 10000,0.95,12.5,–
"CC(C)NC(=O)[C@@H]1[C@H](C(=O)Nc2ccc(Br)cc2)[C@@H]2CC[C@H]1C21CC1 (racemic) [Compound 79, (+/−)-(1S,2R,3S,4R)—N^2-(4-Bromophenyl)-N^3-isopropylspiro[bicyclo[2.2.1]heptane-7,1′-cyclopropane]-2,3-dicarboxamide]",> 10000,1.0,6.6,–
"O=C(NCCO)[C@@H]1[C@H](C(=O)Nc2ccc(Br)cc2)[C@@H]2CC[C@H]1C21CC1 (racemic) [Compound 82, (+/−)-(1S,2R,3S,4R)—N^2-(4-Bromophenyl)-N^3-[2-hydroxyethyl]spiro[bicyclo[2.2.1]heptane-7,1′-cyclopropane]-2,3-dicarboxamide]",> 10000,0.86,8.8,–
"O=C(OCc1ccccc1)[C@@H]1[C@H](C(=O)Nc2ccc(Br)cc2)[C@@H]2CC[C@H]1C21CC1 (racemic) [Compound 85, (+/−)-(1S,2R,3S,4R)-Benzyl 2-((4-bromophenyl)carbamoyl)spiro[bicyclo[2.2.1]heptane-7,1′-cyclopropane]-3-carboxylate]",> 10000,0.88,2140,–
"CC(C)OC(=O)[C@@H]1[C@H](C(=O)Nc2ccc(Br)cc2)[C@@H]2CC[C@H]1C21CC1 (racemic) [Compound 86, (+/−)-(1S,2R,3S,4R)-Isopropyl 2-((4-bromophenyl)carbamoyl)spiro[bicyclo[2.2.1]heptane-7,1′-cyclopropane]-3-carboxylate]",> 10000,1.0,2110,–
